Experimental data published in ChEMBL document CHEMBL1147996, “Synthesis and biological evaluation of phosphino dipeptide isostere inhibitor of human beta-secretase (BACE1)” (Bioorg Med Chem, 2007).
*1 amine or outer side, *2 acyl side, *3 side chain or, on linkers, in order; H or OH if unused. Where a SMILES comes first, the peptide text is derived from it. [ ]: non-standard residue; d: D form. X3 = CC(C)C[C@@H](N[*:1])P(=O)(O)CC(C)C(=O)[*:2]; X1 = CC(C)C[C@H](N[*:1])P(=O)(O)CC(C)C(=O)[*:2]; X2 = CC(C)CC(N[*:1])P(=O)(O)CC(C)C(=O)[*:2]

Experiments:
Beta-secretase 1 = Beta-secretase 1 (Homo sapiens, UniProt P56817); test: Inhibition of human BACE1 expressed in HEK293 cells; assay type: cell-based
Beta-secretase 2 = biological target: T1, Beta-secretase 2 (Homo sapiens, UniProt Q9Y5Z0); test: Inhibition of BACE2 expressed in HEK293 cells; assay type: cell-based
T1 sequence (Q9Y5Z0 whole entry): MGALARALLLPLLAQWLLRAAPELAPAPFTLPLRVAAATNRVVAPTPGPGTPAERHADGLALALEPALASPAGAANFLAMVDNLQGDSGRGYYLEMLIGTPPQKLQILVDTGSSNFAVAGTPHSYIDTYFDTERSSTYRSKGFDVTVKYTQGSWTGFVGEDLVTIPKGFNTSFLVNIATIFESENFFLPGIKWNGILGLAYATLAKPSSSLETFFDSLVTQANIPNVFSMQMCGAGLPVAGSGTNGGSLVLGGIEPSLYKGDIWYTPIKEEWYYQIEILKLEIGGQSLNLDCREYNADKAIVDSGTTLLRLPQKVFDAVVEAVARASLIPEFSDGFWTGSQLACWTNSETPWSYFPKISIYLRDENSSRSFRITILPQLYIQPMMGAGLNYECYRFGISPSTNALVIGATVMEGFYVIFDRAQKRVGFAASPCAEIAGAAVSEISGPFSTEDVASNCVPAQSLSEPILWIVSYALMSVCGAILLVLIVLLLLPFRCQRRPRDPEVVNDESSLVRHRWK

Cathepsin D = Cathepsin D (Homo sapiens, UniProt P07339); test: Inhibition of cathepsin D expressed in HEK293 cells; assay type: cell-based
[1] = Inhibition of porcine pepsin; parameters: species or system Sus scrofa

Chain of Beta-secretase 1 (P56817 whole entry): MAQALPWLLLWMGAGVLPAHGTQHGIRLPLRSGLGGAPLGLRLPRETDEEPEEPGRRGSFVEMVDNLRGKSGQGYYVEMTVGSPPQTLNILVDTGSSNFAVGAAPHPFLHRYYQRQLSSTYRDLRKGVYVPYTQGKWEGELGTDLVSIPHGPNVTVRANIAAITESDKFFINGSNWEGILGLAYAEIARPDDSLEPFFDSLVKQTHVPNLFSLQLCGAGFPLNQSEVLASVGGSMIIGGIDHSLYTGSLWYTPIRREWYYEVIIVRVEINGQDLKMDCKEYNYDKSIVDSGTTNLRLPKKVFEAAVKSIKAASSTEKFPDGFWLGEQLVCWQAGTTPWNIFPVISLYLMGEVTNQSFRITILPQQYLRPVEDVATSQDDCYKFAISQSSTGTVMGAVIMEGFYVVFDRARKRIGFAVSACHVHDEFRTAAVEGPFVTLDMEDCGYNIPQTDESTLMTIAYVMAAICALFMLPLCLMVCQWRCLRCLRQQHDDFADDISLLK
Chain of Cathepsin D (P07339 65-162 limits assumed): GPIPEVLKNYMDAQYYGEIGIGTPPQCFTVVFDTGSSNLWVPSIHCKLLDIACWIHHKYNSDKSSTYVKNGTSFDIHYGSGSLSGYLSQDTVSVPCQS
Chain of Cathepsin D (P07339 169-412 limits assumed): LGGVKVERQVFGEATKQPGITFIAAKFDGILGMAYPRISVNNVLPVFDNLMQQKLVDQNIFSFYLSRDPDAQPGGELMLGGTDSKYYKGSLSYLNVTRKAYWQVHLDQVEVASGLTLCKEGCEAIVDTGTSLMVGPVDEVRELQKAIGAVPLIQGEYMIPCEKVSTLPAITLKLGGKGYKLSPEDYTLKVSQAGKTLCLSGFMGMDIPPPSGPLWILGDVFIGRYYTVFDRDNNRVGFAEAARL

Row | SMILES | IC50 (Beta-secretase 1) [nM] | IC50 (Beta-secretase 2) [nM] | IC50 (Cathepsin D) [nM] | IC50 [1] [nM]
1 | CC(C)C[C@H](NC(=O)[C@@H](N)CCC(=O)O)C(=O)N[C@@H](CC(=O)O)C(=O)N[C@@H](CC(C)C)P(=O)(O)CC(C)C(=O)N[C@H](C(=O)N[C@@H](CCC(=O)O)C(=O)N[C@@H](Cc1ccccc1)C(=O)O)C(C)C (stereo partly specified) (H-ELD[X1]VEF-OH) | 12 | 12 | 28 | 8
2 | CC(C)C[C@H](NC(=O)[C@@H](N)CCC(=O)O)C(=O)N[C@@H](CC(=O)O)C(=O)N[C@H](CC(C)C)P(=O)(O)CC(C)C(=O)N[C@H](C(=O)N[C@@H](CCC(=O)O)C(=O)N[C@@H](Cc1ccccc1)C(=O)O)C(C)C (stereo partly specified) (H-ELD[X3]VEF-OH) | 2020 | – | – | –
3 | CC(C)CC(NC(=O)[C@H](CC(=O)O)NC(=O)[C@H](CC(C)C)NC(=O)[C@@H](N)CCC(=O)O)P(=O)(O)CC(C)C(=O)N[C@H](C(=O)N[C@@H](CCC(=O)O)C(=O)N[C@@H](Cc1ccccc1)C(=O)O)C(C)C (stereo partly specified) (H-ELD[X2]VEF-OH) | 675 | – | – | –
